{"source": "patent US6872751B2", "about": "“Composition and method for augmenting or restoring the production of fetal protein in patient in need thereof” (Centre National de la Recherche Scientifique - CNRS, priority 1999, dated 2005)", "key": {"utrophin [1]": {"tested_on": "utrophin", "experiment": "Utrophin immunofluorescence in XLT (mdx) myotubes", "assay_type": "cell-based, mouse", "settings": "48 hours", "experimental": "(§1) A, a-h: normal cell line (NXTL). B, a′-h′: mdx cell line (XLT). The cell cultures were treated by exposure of the differentiated myotubes to drugs for 48 hours. A, a′: control cultures. B, b′: L-arginine(2.10^−3M). c, c′: SIN-1 (10^−3 M). d, d′: SIN-I (10^−3 M) +L-arginine (10^−3 M). e, e′: D-arginine (10^−3 M). f, f′: L-arginine (10^−3 M)+OQD (10^−5 M). g, g′: L-NMMA (10^−3 M). h, h′: hydroxyurea (10^−4 M).\n(§2) Myotubes were obtained from normal cell line (NXLT) and mdx cell line as described by Liberona et al (1998, Muscle & Nerve, 21:902-909), and C2 myotubes as described by Inestrosa et al. (1983, Exp. Cell Res., 147:393-405).\n(§3) In vitro. The cultures were treated as described previously with the exception of the second antibody labelled with fluoroscein which was diluted to 1/100 vol/vol. The incubation time was 2 hours for the first and second antibody."}, "utrophin [2]": {"tested_on": "utrophin", "experiment": "Utrophin immunofluorescence in C2 myotubes", "assay_type": "cell-based, mouse", "settings": "C2 mice myotubes", "experimental": "Myotubes were obtained from normal cell line (NXLT) and mdx cell line as described by Liberona et al (1998, Muscle & Nerve, 21:902-909), and C2 myotubes as described by Inestrosa et al. (1983, Exp. Cell Res., 147:393-405). In vitro. The cultures were treated as described previously with the exception of the second antibody labelled with fluoroscein which was diluted to 1/100 vol/vol. The incubation time was 2 hours for the first and second antibody."}, "utrophin [3]": {"tested_on": "utrophin", "experiment": "Utrophin immunofluorescence in NXLT (normal) myotubes", "assay_type": "cell-based, mouse", "settings": "48 hours", "experimental": "as §1, §2, §3"}, "utrophin [4]": {"tested_on": "utrophin", "experiment": "Utrophin immunofluorescence in primary rat myotubes", "assay_type": "cell-based", "experimental": "as §3"}, "utrophin [5]": {"tested_on": "utrophin", "experiment": "Utrophin immunolocalisation in muscle of mdx mice treated chronically with L-arginine", "assay_type": "in vivo, mouse", "settings": "200 mg/kg daily intra-peritoneal for three weeks, thigh muscles", "experimental": "(§4) Three normal, adult mice aged 18 months (C57 BL/6 line) and three mdx mice were given a daily intra-peritoneal injection of 200 mg/kg L-arginine for three weeks. Two other groups of three adult mice were used as controls and were given a daily injection of physiological serum.\n(§5) The mice were sacrificed by ether anaesthesia, the biceps femoris and the semi-tendinous muscles were quickly dissected from the hind limbs of each animal and frozen in liquid nitrogen.\n(§6) In vivo. After cold fixing in methanol (−20° C. for 10 minutes) sections of […] were incubated for two hours with utrophin specific monoclonal antibody (NCL-DRP 2, Novacastra) (1/10 vol/vol) in PBS containing 0.1% saponin and 0.2% bovine albumin. The second antibody labelled with fluoroscein (N 1031, Amersham) was diluted (1/4000 vol/vol) in PBS containing 0.1% saponin and incubated for one hour."}, "utrophin [6]": {"tested_on": "utrophin", "experiment": "Utrophin immunolocalisation in muscle of normal adult mice treated chronically with L-arginine", "assay_type": "in vivo, mouse", "settings": "normal adult C57 BL/6 mice, 200 mg/kg daily intra-peritoneal for three weeks, thigh muscles", "experimental": "as §4, §5, §6"}, "utrophin [7]": {"tested_on": "utrophin", "experiment": "Utrophin immunoblot of NXLT myotubes", "assay_type": "cell-based, mouse", "settings": "48 hours, 2.10^-3 M", "experimental": "(§7) Imunoblot analysis of utrophin was conducted under control conditions (CTRL) and after 48 hours treatment with 2.10^−3 M L-arginine (L-arg).\nas §2\n(§8) The myotubes obtained from the NXLT, XLT and C2 lines were homogenized using a Polytron (Kinematica) in 10 mM Tris-HCl pH 6.8, 1% Triton X-100, 1% SOS, 0.5% sodium deoxycholate on ice. The quantity of total proteins was determined following the protocol for the bicinchoninic acid protein test (BCA, Pierce). Equivalent quantities of protein were separated by SOS-Page on 5% gel, then electrotransferred onto a nitrocellulose membrane (Schleicher & Schuell). The membranes were then incubated with the same monoclonal antibody directed against utrophin used for the immunofluorescence techniques (1/250 vol/vol). The fixed antibodies were detected with a Sanofi anti-mouse goat secondary antibody (1/5000 vol/vol) bound to horseradish peroxydase and developed by chemioluminescence reaction (ECL, Amersham Pharmacy Biotech)."}, "utrophin [8]": {"tested_on": "utrophin", "experiment": "Utrophin immunoblot of XLT (mdx) myotubes", "assay_type": "cell-based, mouse", "settings": "48 hours, 2.10^-3 M", "experimental": "as §7, §2, §8"}, "utrophin [9]": {"tested_on": "utrophin", "experiment": "Utrophin immunoblot of C2 myotubes", "assay_type": "cell-based, mouse", "settings": "48 hours, 2.10^-3 M", "experimental": "as §7, §2, §8"}, "[10]": {"settings": "ODQ 10^-5 M with L-arginine 10^-3 M"}}, "note": "“Also recorded” adds a separate entry of the source.", "data": [{"smiles": "N=c1c[n+](N2CCOCC2)[n-]o1", "note": "[SIN-1, 3-morpholino-sydnonimine]", "values": [{"measurement": "utrophin labelling", "setting": "utrophin [1]; 10^-3 M", "result": "utrophin labelling increased"}, {"measurement": "utrophin labelling", "setting": "utrophin [2]", "result": "increased labelling of utrophin was also observed to a lesser extent"}, {"measurement": "utrophin labelling", "setting": "utrophin [3]; 10^-3 M", "result": "utrophin labelling increased"}, {"measurement": "utrophin labelling", "setting": "utrophin [4]", "result": "increased labelling of utrophin was also observed to a lesser extent"}]}, {"smiles": "CNC(=N)NCCC[C@H](N)C(=O)O", "note": "[L-NMMA, N^G-methyl-L-arginine]", "values": [{"measurement": "utrophin labelling", "setting": "utrophin [1]; 10^-3 M", "result": "basal level of utrophin"}, {"measurement": "utrophin labelling", "setting": "utrophin [3]; 10^-3 M", "result": "basal level of utrophin"}]}, {"smiles": "NC(=O)NO", "note": "[hydroxyurea]", "values": [{"measurement": "utrophin labelling", "setting": "utrophin [1]; 10^-4 M", "result": "increases utrophin labelling in remarkable manner"}, {"measurement": "utrophin labelling", "setting": "utrophin [3]; 10^-4 M", "result": "increases utrophin labelling in remarkable manner"}]}, {"smiles": "N=C(N)NCCCC(N)C(=O)O", "note": "[L-arginine, 2-amino-5-guanidinovaleric acid]", "values": [{"measurement": "utrophin labelling", "setting": "utrophin [1]; 2.10^-3 M", "result": "utrophin labelling increased"}, {"measurement": "utrophin labelling", "setting": "utrophin [2]", "result": "increased labelling of utrophin was also observed to a lesser extent"}, {"measurement": "utrophin at the sarcolemma (immunolocalisation)", "setting": "utrophin [5]", "result": "increase in utrophin levels under the sarcolenima; also recorded: increased the utrophin level already present in the sarcolemma"}, {"measurement": "utrophin at the sarcolemma (immunolocalisation)", "setting": "utrophin [6]", "result": "utrophin is seen under the sarcolemma; also recorded: utrophin was detected underneath the sarcolemma"}, {"measurement": "utrophin level (Western blot)", "setting": "utrophin [7]", "result": "evident increase of utrophin"}, {"measurement": "utrophin level (Western blot)", "setting": "utrophin [8]", "result": "evident increase of utrophin"}, {"measurement": "utrophin level (Western blot)", "setting": "utrophin [9]", "result": "increase in utrophin after treatment with L-arginine was confirmed"}, {"measurement": "utrophin labelling", "setting": "utrophin [3]; 2.10^-3 M", "result": "utrophin labelling increased"}, {"measurement": "utrophin labelling", "setting": "utrophin [4]", "result": "increased labelling of utrophin was also observed to a lesser extent"}]}, {"smiles": "O=c1onc2cnc3ccccc3n12", "note": "[ODQ]", "values": [{"measurement": "utrophin synthesis induced by NO (labelling)", "setting": "utrophin [1]; [10]", "result": "inhibited"}, {"measurement": "utrophin synthesis induced by NO (labelling)", "setting": "utrophin [3]; [10]", "result": "inhibited"}]}, {"smiles": "N=C(N)NCCC[C@@H](N)C(=O)O", "note": "[D-arginine]", "values": [{"measurement": "utrophin labelling", "setting": "utrophin [1]; 10^-3 M", "result": "absence of any effect"}, {"measurement": "utrophin labelling", "setting": "utrophin [3]; 10^-3 M", "result": "absence of any effect"}]}]}
